Measurements: patent publication US12129265B2, “Therapeutic agents and uses thereof” (Ankh Life Sciences Limited, priority 2020, dated 2024)
Values after ≈ are worked out from the molar mass of the structure shown. Read-outs that look alike come from different tables or passages of the source. Each block holds one compound with its values, some of them ahead of it.

Assays:
[1] = test system: Jeko-1 Lenalidomide resistant cells; assay: CellTiter-Glo in vitro cell proliferation assay, Example 8; type: cell-based; settings: Homo sapiens, Mantle Cell Lymphoma, 72 hours
Description: (§1) In this Example, in vitro cell proliferation assays were performed using: (1) Human Myeloma tumor cell lines; (2) Human Lymphoma tumor cell lines; (3) Solid Human tumor cell lines; and (4) Parental, Lenalidomide resistant and Bortezomib resistant Jeko-1 Mantle cell Lymphoma tumor cell lines. The compounds tested were three diharmaline compounds, namely the 518B562 (or simply 562), 560, and 561 compounds. In addition, a monoharmaline product designated as 518F014 was also tested. This monoharmaline product had the following structure:
(§2) Each proliferation assay was carried out as follows. The test cells were plated in growth media using a 384-well microtiter plate at 50 μL volume. The cells were incubated for 24 hours at 37° C. in a humidified incubator. After 24 hours of incubation, the test compounds were added to the test wells in DSMO solvent, at concentrations ranging from 0.0075-100 μM. Control wells received equal volumes of DSMO, without compound. Following drugging, the cells were incubated for 72 hours at 37° C. in a humidified incubator. After this exposure, 100 μL of a 1:1 mixture of sterile water and CellTiter-Glo® reagent (Promega) was added to each well. The plates were then incubated for 60 minutes at room temperature, followed by recording the luminescence value of each well using a luminometer as a measure of cell proliferation.

[2] = test system: Jeko-1 Bortezomib resistant cells; assay: as above; type: cell-based; settings: Homo sapiens, Mantle Cell Lymphoma, 72 hours
Description: as §1, §2

N87 cells = assay: as above; type: cell-based; settings: Homo sapiens, N87, Gastric
Description: as §1, §2

SU-DHL-4 cells = assay: as above; type: cell-based; settings: Homo sapiens, SU-DHL-4, Diffuse Large B-Cell Lymphoma
Description: as §1, §2

RXF-393 cells = assay: as above; type: cell-based; settings: Homo sapiens
Description: as §1, §2

Jeko-1 Parental cells = assay: as above; type: cell-based; settings: Homo sapiens, Mantle Cell Lymphoma, 72 hours
Description: as §1, §2

SU-DHL-6 cells = assay: as above; type: cell-based; settings: Homo sapiens, SU-DHL-6, Diffuse Large B-Cell Lymphoma
Description: as §1, §2

KMS-11 cells = assay: as above; type: cell-based, Human
Method in brief: (§3)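 72 h continuous exposure, 37 °C, humidified; conc. 0.0075–100 μM (DMSO); CellTiter-Glo luminescence, 60 min RT incubation before read.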

FaDu cells = assay: as above; type: cell-based, Human; settings: Homo sapiens
Method in brief: as §3

L363 cells = assay: as above; type: cell-based, Human; settings: L-363
Method in brief: as §3

S2-007 cells = assay: Cell colony formation assay, Example 16; type: cell-based, human; settings: 4 μg and 6 μg, 24, 48, and 72 hours, FIG. 123
Description: (§4) In this example, the 560 and 562 compounds of Examples 12 and 14, respectively, were tested using cell colony formation assays. 500 viable S2-007 and MiaCaPa-2 cells were plated in six-well dishes and allowed to grow for 24 hours. The cells were then incubated in the presence or absence of the 560 and 562 compounds for 72 hours. The compound-containing media were then removed, and the cells were washed in PBS and incubated for an additional 10 days in complete media. The resultant colonies were then washed in PBS and fixed using 10% formalin for 10 minutes at room temperature, followed by washing with PBS and staining with Crystal Violet. The colonies of the control and compound-supplemented assays were then counted and compared.

MiaPaCa-2 cells = assay: Cell colony formation assay, Example 16; type: cell-based, human
Description: as §4

[3] = test system: S2-007 pancreatic cancer cells; assay: Proliferation assay, Example 10; type: cell-based, human
Description: (§5) In this Example, pancreatic cancer cells (S2-007 and Mia-PaCa2) were treated with the previously described compound 518B562 at different times and concentrations, followed by generation of proliferation assays using the techniques described above. […] After 72 hours of treatment, the IC50 values of the compound against S2-007 and Mia-PaCa2 cells was determined as 3 μg/mL and 5 μg/mL, respectively.

[4] = test system: Mia-PaCa2 pancreatic cancer cells; assay: Proliferation assay, Example 10; type: cell-based, human
Description: as §5

[5] = Solubility observation on acid addition; type: physicochemical; settings: addition of an acid such as hydrochloric acid to reduce the pH of the product
Description: The 518B562 compound was prepared by mixing together particulate harmaline and vanillin at a weight ratio of about 2:1 (vanillin:harmaline), followed by adding ethanol to a final concentration of the reactions of from about 10-100 mg/mL. This mixture is then allowed to sit for approximately 3 days at 50° C. A bluish solid forms, which is filtered and washed with methanol, and recovered.

[6] = test system: gene expression in S2-007 human pancreatic cancer cells; assay: RNA-Seq clustergram/heat map of cancer stem cell markers, Example 11; type: cell-based; settings: 5 micro-g/mL
Description: In this Example, a clustergram/heat map of RNA sequences for cancer stem cell (CSC) markers was performed before and after treatment of S2-007 human pancreatic cancer cells with 518B562. This experiment was conducted using a Whole Transcriptome Shotgun Sequence (WTSS), followed by bioinformatics data analysis of CSC markers. An RNA-Seq/heat map was generated to obtain a genome-wide gene expression profile of the pancreatic cancer cells.
One sample of the pancreatic cancer cell line was untreated, while an identical sample was treated with 5 micro-g/mL of 518B562. Comparative RNA sequences were performed on the samples using an Illumina HISeq 2500 sequencer at a 100 bp single read resolution. The sequence readings were mapped to the human genome (assembly GRCh38.re177) using the STAR software (Dobin et al. 2012). Transcript abundance estimates were generated using the Cufflinks software (Trapnell et al. 2010) and differential gene expression estimates were calculated using the Cuffdiff software (Trapnell et al. 2013). RNA-Seq generated around […], of which between 97.2% and 98.3% of the reads mapped to the reference genome.

[7] = RXF-393, Renal, 72 hours, read-out: Mean IC50
[8] = KMS-11, Human Myeloma, 72 hours, read-out: Mean IC50
[9] = Squamous, 72 hours, read-out: Mean IC50
[10] = L363, Human Myeloma, 72 hours, read-out: Mean IC50
[11] = doses of 1-25 μg/mL, time-dependent, 24-72 hours

IC50 (SU-DHL-4 cells; 72 hours, read-out: Mean IC50): 3.68 µM
IC50 (SU-DHL-6 cells; 72 hours, read-out: Mean IC50): 3.52 µM
Structure (SMILES): COc1ccc2c3c([nH]c2c1)C(CC(CC1=NCCc2c1[nH]c1cc(OC)ccc21)c1ccccc1)=NCC3 [compound 560]
IC50 [1]: 5.07 µM
IC50 [2]: 4.08 µM
IC50 (N87 cells; 72 hours, read-out: Mean IC50): 3.71 µM
IC50 (RXF-393 cells; [7]): 5.4 µM
IC50 (Jeko-1 Parental cells): 4.7 µM
IC50 (KMS-11 cells; [8]): 4.95 µM
IC50 (FaDu cells; [9]): 2.05 µM
IC50 (L363 cells; [10]): 5.27 µM
colony formation (S2-007 cells): significantly disrupted colony formation, particularly at the 6 μg level of use
colony formation (MiaPaCa-2 cells; 3 μg and 5 μg, 24, 48, and 72 hours, FIG. 124): significantly disrupted colony formation at both levels of use

IC50 ([3]; Homo sapiens, Pancreatic cancer cell, after 72 hours of treatment): 3 µg/mL (≈ 5.33 µM)
IC50 ([4]; Homo sapiens, MIA PaCa-2, after 72 hours of treatment): 5 µg/mL (≈ 8.89 µM)
solubility [5]: increased the solubility thereof
IC50 (SU-DHL-4 cells; 72 hours, read-out: Mean IC50): 1.81 µM
IC50 (SU-DHL-6 cells; 72 hours, read-out: Mean IC50): 0.819 µM
Structure (SMILES): COc1ccc2c3c([nH]c2c1)C(CC(CC1=NCCc2c1[nH]c1cc(OC)ccc21)c1ccc(O)c(OC)c1)=NCC3 [compound 562]
inhibition of proliferation [3, 11]: significantly inhibited the proliferation
inhibition of proliferation [4, 11]: significantly inhibited the proliferation
IC50 [1]: 6.19 µM
IC50 [2]: 4.81 µM
IC50 (N87 cells; 72 hours, read-out: Mean IC50): 1.85 µM
IC50 (RXF-393 cells; [7]): 1.79 µM
IC50 (Jeko-1 Parental cells): 4.41 µM
angiogenesis markers [OXTR, SYCP2, CRHR1, SPEG] [6]: down-regulated
anti-apoptotic markers [TUG1, FABP1, PI3, DOKS] [6]: down-regulated
anti-proliferative markers [NRP1, ATF2A, CYP1b1, ALPP, DEPTOR, MT1F] [6]: up-regulated
apoptotic markers [ICAM5, WNK4, ALPP, LTRC26, SHBG, MT1X] [6]: up-regulated
proliferation signaling markers [FOXj1, SPP1, C3] [6]: down-regulated
IC50 (KMS-11 cells; [8]): 4.93 µM
IC50 (FaDu cells; [9]): 1.98 µM
IC50 (L363 cells; [10]): 2 µM
colony formation (MiaPaCa-2 cells; 3 μg, 7 μg, 10 μg, and 12 μg, 24, 48, and 72 hours, FIG. 127): significantly disrupted colony formation, particularly at the higher levels of use

IC50 (SU-DHL-4 cells; Example 24, read-out: Mean): 2.73 µg/mL
IC50 (SU-DHL-4 cells; Example 24, read-out: Trial A): 2.77 µg/mL
IC50 (SU-DHL-4 cells; Example 24, read-out: Trial B): 2.7 µg/mL
IC50 (SU-DHL-6 cells; Example 24, read-out: Mean): 2.36 µg/mL
IC50 (SU-DHL-6 cells; Example 24, read-out: Trial A): 2.48 µg/mL
IC50 (SU-DHL-6 cells; Example 24, read-out: Trial B): 2.23 µg/mL
Structure (SMILES): COc1ccc2c3c([nH]c2c1)C(CC(CC1=NCCc2c1[nH]c1cc(OC)ccc21)c1cccc(Oc2ccccc2)c1)=NCC3 [compound 594, diharmaline 3-phenoxybenzaldehyde]
IC50 (N87 cells; Example 24, read-out: Mean): 4.26 µg/mL
IC50 (N87 cells; Example 24, read-out: Trial A): 3.48 µg/mL
IC50 (N87 cells; Example 24, read-out: Trial B): 5.04 µg/mL
IC50 (RXF-393 cells; Example 24, RXF-393, RCC, read-out: Mean): 3.16 µg/mL
IC50 (RXF-393 cells; Example 24, RXF-393, RCC, read-out: Trial A): 3.16 µg/mL
IC50 (RXF-393 cells; Example 24, RXF-393, RCC, read-out: Trial B): 3.16 µg/mL
IC50 (KMS-11 cells; Example 24, KMS-11, human myeloma, read-out: Mean): 6.04 µg/mL
IC50 (KMS-11 cells; Example 24, KMS-11, human myeloma, read-out: Trial A): 6.43 µg/mL
IC50 (KMS-11 cells; Example 24, KMS-11, human myeloma, read-out: Trial B): 5.64 µg/mL
IC50 (FaDu cells; Example 24, Squamous, read-out: Mean): 4.62 µg/mL
IC50 (FaDu cells; Example 24, Squamous, read-out: Trial A): 3.78 µg/mL
IC50 (FaDu cells; Example 24, Squamous, read-out: Trial B): 5.45 µg/mL
IC50 (L363 cells; Example 24, L363, human myeloma, read-out: Mean): 3.64 µg/mL
IC50 (L363 cells; Example 24, L363, human myeloma, read-out: Trial A): 3.67 µg/mL
IC50 (L363 cells; Example 24, L363, human myeloma, read-out: Trial B): 3.6 µg/mL
